Results taken from patent US12636277B2, “Methods for treating developmental dysplasis of hip” (WEST CHINA HOSPITAL OF SICHUAN UNIVERSITY, priority 2024, dated 2026).
Entries after “also recorded” stand apart in the source; their conditions may differ.

Tests used:
[1] = system: NR3C1 and MDK expression in primary FSPC; test: Western blot of NR3C1 and MDK expression in primary FSPC after iMDK treatment; assay type: cell-based, human; conditions: iMDK 100 nM, DDH group FSPC in vitro, compared with the DDH group
Description: (§1) The samples from the DDH group were divided into two portions, one of which was treated with iMDK in vitro (DDH cell samples were added with iMDK, where the iMDK was 100 nM), and the specific dosages and treatments were not restricted by reference to commonly used inhibitor treatments or mixed cultures, etc. Cells in the control group and DDH group were cultured in the same way (the difference is no iMDK treatment). Post-treatment samples were examined for the expression levels of NR3C1 and MDK and cell proliferation of primary FSPC from different groups after treatment with the MDK inhibitor (IMDK), using Western blot and the Edu assay, etc., and the results were shown in FIGS. 3E-3F. As shown in FIGS. 3E-3F, compared with the DDH group, the expression levels of NR3C1 and MDK were reduced and the cell proliferation was reduced in the control group. Compared with the DDH group, the expression levels of NR3C1 and MDK were reduced in iMDK-treated FSPC, and cell proliferation capacity was reduced.

primary FSPC = test: Edu assay of cell proliferation of primary FSPC after iMDK treatment; assay type: cell-based, human; conditions: iMDK 100 nM, DDH group FSPC in vitro, compared with the DDH group
Description: as §1

DDH rat model = test: DDH rat model, iMDK injected into the hip joints (Micro CT, HE and safranin O-solid green staining, immunohistochemistry); assay type: in vivo, Wistar rats; conditions: 5 mg/kg body weight into hip joints for 7 days
Description: In some embodiments, a DDH rat model is established to illustrate the results of the present disclosure. The manner of establishing the DDH rat model is as follows.
Fifteen neonatal rodents (e.g., Wistar rats, etc.) were divided into the control group, DDH group, and iMDK group. The DDH rat model was prepared by fixing the hind limbs of rats in the DDH group and the iMDK group using medical adhesive tape, etc., and keeping the hip joints internally retracted or post-extended for 10 days. […] Neonatal rats were fed by their mothers and had normal growth, development, and nutritional status. Rats in the DDH group and the iMDK group were de-taped for 30 min daily.
After 10 days, iMDK (e.g., HY-110171, etc.) was injected into the hip joints of rats in the iMDK group at a dosage of 5 mg/kg body weight for 7 days. Rats in the DDH group and control group were injected with equal volumes of saline.
It can be seen from FIG. 4 that compared with the control group, the acetabulum of the rats in the DDH group became shallow and the hip joints were dislocated.
In some embodiments, hip specimens were stained with HE (hematoxylin-eosin staining) and safranin O-solid green SO, and the results are shown in FIGS. 5A-5B. As shown in FIGS. 5A-5B, the acetabular labrum was thickened and the articular structure was disorganized in the DDH group. The iMDK group inhibited abnormal manifestations within the joint such as thickening of the acetabular labrum and joint structure disorders.

[2] = hip specimens, rank among DDH, DDH+iMDK and control groups

SMILES: O=c1oc2ccccc2cc1-c1cn2cc(Cc3ccc(F)cc3)sc2n1 [iMDK]
- expression level of MDK [1]: reduced
- expression level of NR3C1 [1]: reduced
- cell proliferation capacity (primary FSPC): reduced
- abnormal manifestations within the joint such as thickening of the acetabular labrum and joint structure disorders (HE, safranin O-solid green staining) (DDH rat model; hip specimens): inhibited; also recorded: inhibits the thickening of the acetabular labrum
- expression level of Ki67 (immunohistochemistry) (DDH rat model; [2]): highest in the DDH group, followed by the DDH+iMDK group
- expression level of NR3C1 (immunohistochemistry) (DDH rat model; [2]): highest in the DDH group, followed by the DDH+iMDK group
- hip dislocation (Micro CT) (DDH rat model; specimens 24 days after end of treatment): significant improvement
